Experimental data reported in the supplement of paper PMC10307832.

Columns and labels:
Assay in all cases: relative viability (nuclei count vs DMSO), 5 days (fraction); higher = more cells survive
Serdemetan + Palbociclib = compound: c1ccc2c(CCNc3ccc(Nc4ccncc4)cc3)c[nH]c2c1 [Serdemetan] + CC(=O)c1c(C)c2cnc(Nc3ccc(N4CCNCC4)cn3)nc2n(C2CCCC2)c1=O [Palbociclib] (partner 0.5 µM)
In short: (§1)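 Lung cancer cell lines, seeded in 1536-well plates, were treated the following day by pin tool with a single drug or with five library-drug doses (not always all listed) in √10 steps on top of a fixed anchor-drug dose. Cells were fixed and nuclei stained in one step after 5 days, and nuclei were counted. Relative viability is the nuclei count for treated wells divided by that for vehicle wells, reported as medians of duplicate plates.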

Serdemetan + Phenformin = compound: c1ccc2c(CCNc3ccc(Nc4ccncc4)cc3)c[nH]c2c1 [Serdemetan] + N=C(N)NC(=N)NCCc1ccccc1 [Phenformin] (partner 250 µM)
In short: as §1

Serdemetan + Alpelisib = compound: c1ccc2c(CCNc3ccc(Nc4ccncc4)cc3)c[nH]c2c1 [Serdemetan] + Cc1nc(NC(=O)N2CCC[C@H]2C(N)=O)sc1-c1ccnc(C(C)(C)C(F)(F)F)c1 [Alpelisib] (partner 2 µM)
In short: as §1

Serdemetan + Tozasertib = compound: c1ccc2c(CCNc3ccc(Nc4ccncc4)cc3)c[nH]c2c1 [Serdemetan] + Cc1cc(Nc2cc(N3CCN(C)CC3)nc(Sc3ccc(NC(=O)C4CC4)cc3)n2)n[nH]1 [Tozasertib] (partner 0.1 µM)
In short: as §1

Cell Line: NCI-H441
- relative viability (Serdemetan + Palbociclib; first compound 0.04 µM): 0.206
- relative viability (Serdemetan + Palbociclib; first compound 0.1265 µM): 0.212
- relative viability (Serdemetan + Palbociclib; first compound 0.4 µM): 0.18
- relative viability (Serdemetan + Palbociclib; first compound 1.265 µM): 0.147
- relative viability (Serdemetan + Palbociclib; first compound 4 µM): 0.225
- relative viability (Serdemetan + Phenformin; first compound 0.04 µM): 0.793
- relative viability (Serdemetan + Phenformin; first compound 0.1265 µM): 0.917
- relative viability (Serdemetan + Phenformin; first compound 0.4 µM): 0.791
- relative viability (Serdemetan + Phenformin; first compound 1.265 µM): 0.709
- relative viability (Serdemetan + Phenformin; first compound 4 µM): 0.517
- relative viability (Serdemetan + Alpelisib; first compound 0.04 µM): 0.85
- relative viability (Serdemetan + Alpelisib; first compound 0.1265 µM): 0.678
- relative viability (Serdemetan + Alpelisib; first compound 0.4 µM): 0.803
- relative viability (Serdemetan + Alpelisib; first compound 1.265 µM): 0.524
- relative viability (Serdemetan + Alpelisib; first compound 4 µM): 0.513
- relative viability (Serdemetan + Tozasertib; first compound 0.04 µM): 0.719
- relative viability (Serdemetan + Tozasertib; first compound 0.1265 µM): 0.669
- relative viability (Serdemetan + Tozasertib; first compound 0.4 µM): 0.687
- relative viability (Serdemetan + Tozasertib; first compound 1.265 µM): 0.709
- relative viability (Serdemetan + Tozasertib; first compound 4 µM): 0.605

Cell Line: NCI-H460
- relative viability (Serdemetan + Palbociclib; first compound 0.04 µM): 0.166
- relative viability (Serdemetan + Palbociclib; first compound 0.1265 µM): 0.175
- relative viability (Serdemetan + Palbociclib; first compound 0.4 µM): 0.0992
- relative viability (Serdemetan + Palbociclib; first compound 1.265 µM): 0.0798
- relative viability (Serdemetan + Palbociclib; first compound 4 µM): 0.0544
- relative viability (Serdemetan + Phenformin; first compound 0.04 µM): 0.47
- relative viability (Serdemetan + Phenformin; first compound 0.1265 µM): 0.505
- relative viability (Serdemetan + Phenformin; first compound 0.4 µM): 0.446
- relative viability (Serdemetan + Phenformin; first compound 1.265 µM): 0.145
- relative viability (Serdemetan + Phenformin; first compound 4 µM): 0.09
- relative viability (Serdemetan + Alpelisib; first compound 0.04 µM): 0.506
- relative viability (Serdemetan + Alpelisib; first compound 0.1265 µM): 0.415
- relative viability (Serdemetan + Alpelisib; first compound 0.4 µM): 0.333
- relative viability (Serdemetan + Alpelisib; first compound 1.265 µM): 0.171
- relative viability (Serdemetan + Alpelisib; first compound 4 µM): 0.0988
- relative viability (Serdemetan + Tozasertib; first compound 0.04 µM): 0.647
- relative viability (Serdemetan + Tozasertib; first compound 0.1265 µM): 0.403
- relative viability (Serdemetan + Tozasertib; first compound 0.4 µM): 0.399
- relative viability (Serdemetan + Tozasertib; first compound 1.265 µM): 0.402
- relative viability (Serdemetan + Tozasertib; first compound 4 µM): 0.12

Cell Line: NCI-H520
- relative viability (Serdemetan + Palbociclib; first compound 0.04 µM): 0.261
- relative viability (Serdemetan + Palbociclib; first compound 0.1265 µM): 0.215
- relative viability (Serdemetan + Palbociclib; first compound 0.4 µM): 0.252
- relative viability (Serdemetan + Palbociclib; first compound 1.265 µM): 0.179
- relative viability (Serdemetan + Palbociclib; first compound 4 µM): 0.193
- relative viability (Serdemetan + Phenformin; first compound 0.04 µM): 0.513
- relative viability (Serdemetan + Phenformin; first compound 0.1265 µM): 0.657
- relative viability (Serdemetan + Phenformin; first compound 0.4 µM): 0.596
- relative viability (Serdemetan + Phenformin; first compound 4 µM): 0.38
- relative viability (Serdemetan + Alpelisib; first compound 0.04 µM): 0.729
- relative viability (Serdemetan + Alpelisib; first compound 0.1265 µM): 0.807
- relative viability (Serdemetan + Alpelisib; first compound 0.4 µM): 1.09
- relative viability (Serdemetan + Alpelisib; first compound 1.265 µM): 0.726
- relative viability (Serdemetan + Alpelisib; first compound 4 µM): 0.786
- relative viability (Serdemetan + Tozasertib; first compound 0.04 µM): 0.42
- relative viability (Serdemetan + Tozasertib; first compound 0.1265 µM): 0.413
- relative viability (Serdemetan + Tozasertib; first compound 0.4 µM): 0.441
- relative viability (Serdemetan + Tozasertib; first compound 1.265 µM): 0.329
- relative viability (Serdemetan + Tozasertib; first compound 4 µM): 0.313

Cell Line: NCI-H647
- relative viability (Serdemetan + Palbociclib; first compound 0.04 µM): 0.374
- relative viability (Serdemetan + Palbociclib; first compound 0.1265 µM): 0.332
- relative viability (Serdemetan + Palbociclib; first compound 0.4 µM): 0.528
- relative viability (Serdemetan + Palbociclib; first compound 1.265 µM): 0.322
- relative viability (Serdemetan + Palbociclib; first compound 4 µM): 0.243
- relative viability (Serdemetan + Phenformin; first compound 0.04 µM): 0.583
- relative viability (Serdemetan + Phenformin; first compound 0.1265 µM): 0.669
- relative viability (Serdemetan + Phenformin; first compound 0.4 µM): 0.511
- relative viability (Serdemetan + Phenformin; first compound 1.265 µM): 0.288
- relative viability (Serdemetan + Phenformin; first compound 4 µM): 0.335
- relative viability (Serdemetan + Alpelisib; first compound 0.04 µM): 1.16
- relative viability (Serdemetan + Alpelisib; first compound 0.1265 µM): 1.2
- relative viability (Serdemetan + Alpelisib; first compound 0.4 µM): 1.05
- relative viability (Serdemetan + Alpelisib; first compound 1.265 µM): 0.762
- relative viability (Serdemetan + Alpelisib; first compound 4 µM): 0.671
- relative viability (Serdemetan + Tozasertib; first compound 0.04 µM): 0.355
- relative viability (Serdemetan + Tozasertib; first compound 0.1265 µM): 0.291
- relative viability (Serdemetan + Tozasertib; first compound 0.4 µM): 0.226
- relative viability (Serdemetan + Tozasertib; first compound 1.265 µM): 0.287
- relative viability (Serdemetan + Tozasertib; first compound 4 µM): 0.223

Cell Line: NCI-H650
- relative viability (Serdemetan + Palbociclib; first compound 0.04 µM): 0.332
- relative viability (Serdemetan + Palbociclib; first compound 0.1265 µM): 0.365
- relative viability (Serdemetan + Palbociclib; first compound 0.4 µM): 0.344
- relative viability (Serdemetan + Palbociclib; first compound 1.265 µM): 0.282
- relative viability (Serdemetan + Palbociclib; first compound 4 µM): 0.287
- relative viability (Serdemetan + Phenformin; first compound 0.04 µM): 0.417
- relative viability (Serdemetan + Phenformin; first compound 0.1265 µM): 0.44
- relative viability (Serdemetan + Phenformin; first compound 0.4 µM): 0.506
- relative viability (Serdemetan + Phenformin; first compound 1.265 µM): 0.403
- relative viability (Serdemetan + Phenformin; first compound 4 µM): 0.481
- relative viability (Serdemetan + Alpelisib; first compound 0.04 µM): 0.965
- relative viability (Serdemetan + Alpelisib; first compound 0.1265 µM): 1.15
- relative viability (Serdemetan + Alpelisib; first compound 0.4 µM): 1.11
- relative viability (Serdemetan + Alpelisib; first compound 1.265 µM): 0.92
- relative viability (Serdemetan + Alpelisib; first compound 4 µM): 0.67
- relative viability (Serdemetan + Tozasertib; first compound 0.04 µM): 0.661
- relative viability (Serdemetan + Tozasertib; first compound 0.1265 µM): 0.679
- relative viability (Serdemetan + Tozasertib; first compound 0.4 µM): 0.803
- relative viability (Serdemetan + Tozasertib; first compound 1.265 µM): 0.642
- relative viability (Serdemetan + Tozasertib; first compound 4 µM): 0.581

Cell Line: NCI-H661
- relative viability (Serdemetan + Palbociclib; first compound 0.04 µM): 0.387
- relative viability (Serdemetan + Palbociclib; first compound 0.1265 µM): 0.416
- relative viability (Serdemetan + Palbociclib; first compound 0.4 µM): 0.411
- relative viability (Serdemetan + Palbociclib; first compound 1.265 µM): 0.382
- relative viability (Serdemetan + Palbociclib; first compound 4 µM): 0.393
- relative viability (Serdemetan + Phenformin; first compound 0.04 µM): 0.283
- relative viability (Serdemetan + Phenformin; first compound 0.1265 µM): 0.303
- relative viability (Serdemetan + Phenformin; first compound 0.4 µM): 0.254
- relative viability (Serdemetan + Phenformin; first compound 1.265 µM): 0.246
- relative viability (Serdemetan + Phenformin; first compound 4 µM): 0.281
- relative viability (Serdemetan + Alpelisib; first compound 0.04 µM): 0.759
- relative viability (Serdemetan + Alpelisib; first compound 0.1265 µM): 0.429
- relative viability (Serdemetan + Alpelisib; first compound 0.4 µM): 0.676
- relative viability (Serdemetan + Alpelisib; first compound 1.265 µM): 0.197
- relative viability (Serdemetan + Alpelisib; first compound 4 µM): 0.428
- relative viability (Serdemetan + Tozasertib; first compound 0.04 µM): 0.362
- relative viability (Serdemetan + Tozasertib; first compound 0.1265 µM): 0.381
- relative viability (Serdemetan + Tozasertib; first compound 0.4 µM): 0.385
- relative viability (Serdemetan + Tozasertib; first compound 1.265 µM): 0.308
- relative viability (Serdemetan + Tozasertib; first compound 4 µM): 0.352

Cell Line: NCI-H727
- relative viability (Serdemetan + Palbociclib; first compound 0.04 µM): 0.351
- relative viability (Serdemetan + Palbociclib; first compound 0.1265 µM): 0.638
- relative viability (Serdemetan + Palbociclib; first compound 0.4 µM): 0.604
- relative viability (Serdemetan + Palbociclib; first compound 1.265 µM): 0.722
- relative viability (Serdemetan + Palbociclib; first compound 4 µM): 0.644
- relative viability (Serdemetan + Phenformin; first compound 0.04 µM): 0.592
- relative viability (Serdemetan + Phenformin; first compound 0.1265 µM): 0.558
- relative viability (Serdemetan + Phenformin; first compound 0.4 µM): 0.642
- relative viability (Serdemetan + Phenformin; first compound 1.265 µM): 0.288
- relative viability (Serdemetan + Phenformin; first compound 4 µM): 0.418
- relative viability (Serdemetan + Alpelisib; first compound 0.04 µM): 0.597
- relative viability (Serdemetan + Alpelisib; first compound 0.1265 µM): 0.522
- relative viability (Serdemetan + Alpelisib; first compound 0.4 µM): 0.593
- relative viability (Serdemetan + Alpelisib; first compound 1.265 µM): 0.487
- relative viability (Serdemetan + Alpelisib; first compound 4 µM): 0.418
- relative viability (Serdemetan + Tozasertib; first compound 0.04 µM): 0.695
- relative viability (Serdemetan + Tozasertib; first compound 0.1265 µM): 0.542
- relative viability (Serdemetan + Tozasertib; first compound 0.4 µM): 0.509
- relative viability (Serdemetan + Tozasertib; first compound 1.265 µM): 0.585
- relative viability (Serdemetan + Tozasertib; first compound 4 µM): 0.518

Cell Line: NCI-H838
- relative viability (Serdemetan + Palbociclib; first compound 0.04 µM): 0.212
- relative viability (Serdemetan + Palbociclib; first compound 0.1265 µM): 0.221
- relative viability (Serdemetan + Palbociclib; first compound 0.4 µM): 0.243
- relative viability (Serdemetan + Palbociclib; first compound 1.265 µM): 0.232
- relative viability (Serdemetan + Palbociclib; first compound 4 µM): 0.23
- relative viability (Serdemetan + Phenformin; first compound 0.04 µM): 0.564
- relative viability (Serdemetan + Phenformin; first compound 0.1265 µM): 0.551
- relative viability (Serdemetan + Phenformin; first compound 0.4 µM): 0.544
- relative viability (Serdemetan + Phenformin; first compound 1.265 µM): 0.427
- relative viability (Serdemetan + Phenformin; first compound 4 µM): 0.641
- relative viability (Serdemetan + Alpelisib; first compound 0.04 µM): 0.994
- relative viability (Serdemetan + Alpelisib; first compound 0.1265 µM): 0.953
- relative viability (Serdemetan + Alpelisib; first compound 0.4 µM): 0.995
- relative viability (Serdemetan + Alpelisib; first compound 1.265 µM): 0.962
- relative viability (Serdemetan + Alpelisib; first compound 4 µM): 1.13
- relative viability (Serdemetan + Tozasertib; first compound 0.04 µM): 0.282
- relative viability (Serdemetan + Tozasertib; first compound 0.1265 µM): 0.246
- relative viability (Serdemetan + Tozasertib; first compound 0.4 µM): 0.234
- relative viability (Serdemetan + Tozasertib; first compound 1.265 µM): 0.231
- relative viability (Serdemetan + Tozasertib; first compound 4 µM): 0.232
